Data taken from publication PMC9897792, “Discovery of novel 2-(4-(benzyloxy)-5-(hydroxyl) phenyl) benzothiazole derivatives as multifunctional MAO-B inhibitors for the treatment of Parkinson’s disease” (Journal of Enzyme Inhibition and Medicinal Chemistry, 2023).

Experiments:
[1] = Stoichiometry of 3h-Fe^2+ complex by molar ratio method; type: physicochemical; details: absorbance at 385 nm; FeSO4 0–187.5 µM; 3h 75 µM in methanol
Procedure: Because Fe^2+ played a crucial role in the pathogenesis of PD, the stoichiometry of 3h-Fe^2+ complex was further measured by using molar ratio method. 3h was incubated with various concentrations of FeSO4 (0–187.5 µM), and the electronic spectra were detected.
As the Fe^2+ played important role in the pathogenetic process of PD, the stoichiometry of 3h-Fe^2+ complex was detected by using molar ratio method. In detail, test compound solution (1.0 ml, 75 µM in methanol) was incubated with Fe^2+ solution (1.0 ml, 7.5–187.5 µM in methanol) at 37 °C for 30 min. Then, the mixture was removed from the vial to a quartz cell, and the absorbance of mixture at 200–800 nm was measured by using UV spectrophotometer (Shimadzu UV-1900i).

[2] = biological target: T1, MAO-B (Homo sapiens, UniProt P27338); assay: MAO-B inhibition, kynuramine method; type: biochemical
T1 sequence (P27338 1-520): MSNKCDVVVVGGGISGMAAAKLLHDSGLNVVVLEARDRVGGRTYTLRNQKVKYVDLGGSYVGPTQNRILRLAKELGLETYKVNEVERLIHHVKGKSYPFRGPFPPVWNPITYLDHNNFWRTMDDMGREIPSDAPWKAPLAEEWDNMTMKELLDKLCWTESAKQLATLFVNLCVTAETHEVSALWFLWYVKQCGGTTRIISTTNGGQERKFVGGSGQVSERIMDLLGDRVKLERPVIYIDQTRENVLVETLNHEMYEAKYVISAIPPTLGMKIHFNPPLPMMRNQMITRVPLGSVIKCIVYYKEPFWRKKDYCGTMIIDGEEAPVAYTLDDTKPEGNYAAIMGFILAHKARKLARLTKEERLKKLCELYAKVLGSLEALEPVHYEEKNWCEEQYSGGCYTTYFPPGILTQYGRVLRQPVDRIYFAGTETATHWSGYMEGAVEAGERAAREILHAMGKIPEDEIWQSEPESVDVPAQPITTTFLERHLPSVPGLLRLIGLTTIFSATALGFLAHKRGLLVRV

[3] = Parallel artificial membrane permeation assay for blood-brain barrier (PAMPA-BBB); type: in vitro ADME
[4] = biological target: T1, MAO-B; assay: Reversibility study of MAO-B inhibition by dialysis method; type: biochemical
[5] = test system: ROS release in LPS-treated BV-2 cells; assay: LPS-induced ROS release in BV-2 cells (DCFH-DA probe); type: cell-based; details: Mus musculus, LPS 1.0 µg/mL, read-out: inhibition rate of LPS-induced ROS release
Procedure: The inhibitory effect of 3h on LPS-induced ROS release in BV-2 cells in vitro was detected by using 2′,7′-dichlorofluorescein diacetate (DCFH-DA) as probe to quantify the ROS level in LPS-treated BV-2 cells. Noticeably, the fluorescence intensity of control group was relatively low, indicating low level of ROS. […] The fluorescence values were further detected by using microplate reader (Figure 9(B)), and then the inhibition rates were calculated. […] BV-2 cells were incubated with test compound solution (10 µL) for 30 min, then LPS (10 µL, 1.0 µg/ml in PBS) was added to each well, and each well would be incubated for another 30 min at 37 °C. […] The fluorescence was measured with excitation and emission wavelengths at 488 and 525 nm on an inverted fluorescence microscope.

molar ratio at intersection of straight lines (molar ratio method) [1]: 1.65
IC50 [2]: 62 ± 5 nM
Pe ([3]; PBS/EtOH (70:30), mean ± SD of three independent experiments): 4.03 ×10⁻⁶ cm/s
Papp at 18 h, 100 µg/mL ([3]; PBS/EtOH (70:30), mean ± SD of three independent experiments, read-out: Pe): 4.03 ± 0.14 ×10⁻⁶ cm/s
MAO-B catalytic activity, undialysis group ([4]; test compound 4 × IC50, 4 °C for 24 h without dialysis): 27.6%
MAO-B catalytic activity, dialysis group ([4]; test compound 4 × IC50, dialysis 24 h): 80.9%
SMILES: Oc1cc(OCc2ccc(F)cc2)ccc1-c1nc2ccccc2s1 [3h, 2-(Benzo[d]thiazol-2-yl)-5-((4-fluorobenzyl)oxy)phenol]
Prediction of penetration into CNS [3]: CNS+ (High BBB permeation predicted (CNS +) Pe> 3.44)
MAO-B inhibitory mode ([4]; classified by MAO-B catalytic activity in dialysis group): reversible (reversible inhibition: MAO-B catalytic activity ≥ 80%)
inhibition at […] ([5]; 2.5 µM): 19.8%
inhibition at 10 µM ([5]; 10.0 µM): 78%
